Measurements reported in patent US20090111818A1, “Combinations of Eszopiclone and O-Desmethylvenlafaxine, and Methods of Treatment of Menopause and Mood, Anxiety, and Cognitive Disorders” (SEPRACOR INC., priority 2005, published 2009).

Key:
[1] = in vivo; cited from earlier work
[2] = tested on: norepinephrine uptake; conditions: in vitro; cited from earlier work
[3] = tested on: dopamine uptake; conditions: in vitro; cited from earlier work
[4] = tested on: norepinephrine synaptosomal uptake; conditions: cited from earlier work
[5] = tested on: women with insomnia secondary to perimenopause or menopause; assay: Clinical study of eszopiclone 3 mg vs placebo: number of nocturnal awakenings due to hot flashes; format: in vivo, human; conditions: Week 1; 3 mg nightly; p<0.0001
Procedure: The study was aimed at observing efficacy of eszopiclone 3 mg compared to placebo in the treatment of insomnia secondary to perimenopause or menopause.
The study was a multicenter, randomized, double-blind, placebo-controlled, parallel-group study. […] The primary method of analysis compared the post-randomization results between the two treatment groups.
Subjects were women with insomnia secondary to perimenopause or menopause. Subjects were perimenopausal or menopausal and had insomnia symptoms including ≧45 minutes sleep latency (SL) and total sleep time (TST) ≦6 hours. Perimenopausal/menopausal symptoms predated the onset of sleep disturbance symptoms. The patient population was predominately Caucasian (77.2%). The mean age was 49, with a range of 40-60.
A total of 410 subjects were randomized. Among them, 201 received 3 mg of eszopiclone (ESZ) nightly (at bedtime) for four weeks and 209 received matching placebo (PBO).

CN(C)CC(c1ccc(O)cc1)C1(O)CCCCC1 (racemic) [O-desmethylvenlafaxine, (±)-1-[2-(dimethylamino)-1-(4-hydroxyphenyl)ethyl]-cyclohexanol]
half-life (t½) [1]: about 10 hours | half-life relative to that of venlafaxine [1]: approximately 2.5 times | inhibition of norepinephrine uptake compared with the parent compound venlafaxine [2]: more potent inhibitor | inhibition of dopamine uptake compared with the parent compound venlafaxine [3]: more potent inhibitor

COc1ccc(C(CN(C)C)C2(O)CCCCC2)cc1 (single isomer, unassigned) [venlafaxine (−) enantiomer]
inhibition of norepinephrine synaptosomal uptake, comparison of enantiomers [4]: more potent inhibitor

CN1CCN(C(=O)O[C@H]2c3nccnc3C(=O)N2c2ccc(Cl)cn2)CC1 [Eszopiclone, (+) 6-(5-chloropyrid-2-yl)-5-(4-methylpiperazin-1-yl)carbonyloxy-7-oxo-6,7-dihydro-5H-pyrrolo[3-4-b]pyrazine]
change from baseline in number of nocturnal awakenings due to hot flashes compared with PBO [5]: significantly reduced
